{"source": "PubChem BioAssay AID2305", "about": "(GlaxoSmithKline (GSK), 2010)", "note": "pIC50: −log10 of the molar value."}
{"system": "P. falciparum 3D7 growth, pLDH absorbance", "experiment": "P. falciparum 3D7 growth inhibition, dose response, strain 3D7 (AID 2305)"}
{"smiles": "CCOc1cc(C(=O)NC2CC(C)(C)NC(C)(C)C2)ccc1-c1cc2cc(Cl)c(Cl)cc2[nH]1", "pIC50": 6.11}
{"smiles": "CCOc1ccc2nc(C)cc(NN=Cc3cccnc3)c2c1", "pIC50": 6.82}
{"smiles": "N#CCSc1nnc(-c2ccccc2)c2ccccc12", "pIC50": 6.14}
{"smiles": "Cc1nc(-c2cccc(Nc3nccc(NCC(O)c4ccc(C(F)(F)F)cc4)n3)c2)cs1", "note": "(stereo not given)", "pIC50": 6.29}
{"smiles": "CSc1cccc(NC(=O)Nc2ccc(I)c(OCCN(C)C)c2)c1", "pIC50": 6.16}
{"smiles": "CC(N)(Cc1ccc(O)cc1)c1nn[nH]n1", "note": "(stereo not given)", "pIC50": 6.01}
{"smiles": "COc1cccc(CCc2cccc(CNC(C)=O)c2)c1", "pIC50": 5.98}
{"smiles": "Clc1ccccc1C=NNc1ccnc2ccccc12", "pIC50": 6.07}
{"smiles": "O=C(Nc1ccc(Cl)cc1)c1cccc(CN2CCCN(Cc3cccc(O)c3)CC2)c1", "pIC50": 6.02}
{"smiles": "CCn1ccc2c(N3CCCS3(=O)=O)cc(C(=O)N[C@@H](Cc3ccccc3)[C@H](O)CNC(C)(C)c3cccc(OC)c3)cc21", "pIC50": 7.40}
{"smiles": "Clc1ccc(-c2csc3ncnc(Cl)c23)cc1", "pIC50": 6.34}
{"smiles": "O=C(NCc1cccc(F)c1)Nc1cccc(-c2ccc(-c3nc4ccc(C(F)(F)F)cc4[nH]3)cc2)c1", "pIC50": 6.11}
{"smiles": "N#Cc1ccc(N(CCOc2ccc(Cl)c(Cl)c2)Cc2ccccc2C(F)(F)F)cc1C(F)(F)F", "pIC50": 5.95}
{"smiles": "CCCCCCCCN1CCCN(C(=O)c2cccc(NC(=O)Nc3ccc4ccccc4c3)c2)CC1", "pIC50": 6.12}
{"smiles": "CN(C)c1ccc(-c2ccc(C(=O)NC3CCN(Cc4ccc5c(c4)OCCO5)CC3)s2)cc1", "pIC50": 5.95}
{"smiles": "COc1ccc(OC)c(-c2ccc(O)c(CNCC(C)c3ccccc3)c2)c1", "note": "(stereo not given)", "pIC50": 6.03}
{"smiles": "COc1ccc(-c2ccc(Nc3cccc(S(=O)(=O)CCN4CCC(CCN(C)C)CC4)c3)nc2)cn1", "pIC50": 5.95}
{"smiles": "COc1cc(Cc2cnc(N)nc2N)cc(OCCCC(=O)O)c1OC", "pIC50": 5.93}
{"smiles": "Cc1ccc(NC(=O)c2ccc3ncccc3c2)cc1OC1CCN(CCC(C)C)CC1", "pIC50": 6.16}
{"smiles": "NC(=NCCc1ccc(Cl)cc1)c1ccc(Cl)c(Cl)c1", "pIC50": 5.96}
{"smiles": "Cc1cccc(C(=O)NCCCN2CCC(NC(=O)/C=C/c3ccc(Cl)c(Cl)c3)CC2)c1", "pIC50": 5.77}
{"smiles": "CC(Cc1ccc(OC2CCCCC2)cc1)NCC(O)c1cccc(Cl)c1", "note": "(stereo not given)", "pIC50": 6.85}
{"smiles": "COc1cc2nc(NCc3ccccc3)nc(NCc3ccccc3)c2cc1OC", "pIC50": 6.82}
{"smiles": "Nc1c(C(=O)NCCCCN2CCN(c3nsc4ccccc34)CC2)sc2ccccc12", "pIC50": 5.88}
{"smiles": "COc1ccc(Br)cc1/C=C/C(=O)Nc1cccc(C2CCCN(C)C2)c1", "note": "(stereo not given)", "pIC50": 6.05}
{"smiles": "O=C(/C=C/c1ccc(Cl)c(Cl)c1)NCCCCCN1CCC(c2c[nH]c3c(-c4ccccc4)cccc23)CC1", "pIC50": 6.60}
{"smiles": "O=C(Cc1ccccc1)NC1(c2ccccc2)CCN(CCc2c[nH]c3ccc(F)cc23)CC1", "pIC50": 6.06}
{"smiles": "O=C(Nc1ccc(C(F)(F)F)cc1)c1cc(Br)cnc1NCCCn1ccnc1", "pIC50": 6.01}
{"smiles": "CC(C)n1ncc2c(C(=O)N3CCCCCC3)cc(-c3ccccc3)nc21", "pIC50": 6.10}
{"smiles": "O=C(Nc1nccs1)c1cn(-c2ccccc2)nc1-c1ccc(Cl)s1", "pIC50": 6.01}
{"smiles": "CCOC(=O)C1=C(C)NC2=C(C(=O)CCC2)C1c1cn(Cc2ccc(Cl)cc2Cl)nc1-c1ccccc1", "note": "(stereo not given)", "pIC50": 6.21}
{"smiles": "O=C(Nc1ccccc1)N(Cc1cccc(-c2cccc(CNCc3ccc4c(c3)OCO4)c2)c1)C1CCN(Cc2ccccc2)CC1", "pIC50": 6.55}
{"smiles": "O=C(NCCCCCCNCc1ccc(-c2ccccc2)cc1)Nc1ccc(Cl)c(Cl)c1", "pIC50": 6.02}
{"smiles": "CC(C)(C)C(=O)Nc1ccc(C(=O)Nc2cccc(-c3nc4ccccc4[nH]3)c2)cc1", "pIC50": 6.55}
{"smiles": "CCN(CC)CCN(Cc1ccc(-c2ccc(C(F)(F)F)cc2)cc1)C(=O)Cn1c(CCc2cccc(C#N)c2)nc(=O)c2ccccc21", "pIC50": 6.11}
{"smiles": "OCC(CO)(CO)NCc1ccc2c3c(cccc13)-c1ccccc1-2", "pIC50": 5.90}
{"smiles": "CC(C)(C)c1ccc(NC(=O)c2ccc(CN3CCCN(CC4CCCCC4)CC3)cc2)cc1", "pIC50": 6.27}
{"smiles": "NCc1ccc(-c2ccccc2CNC2CCN(Cc3ccccc3)CC2)cc1", "pIC50": 6.11}
{"smiles": "COc1ccc(N2CCN(CCCC/C=C/c3ccc(NC(=O)c4cc(Cl)cc(Cl)c4)cc3)CC2)c(OC)c1", "pIC50": 6.18}
{"smiles": "CC(=O)Nc1ccc(C(=O)Nc2ccc(-c3cccc(-c4nc5c(C)cccc5[nH]4)c3)cc2)cn1", "pIC50": 6.59}
